The term inhibition denotes the change of the read-out against control, counted positive when it falls. High values mean strong suppression, low ones little suppression.

One data set concerns Dunning MAT LyLu cells. The experiment in a line: Cytotoxic effect on MAT LyLu cells (trypan blue). Conditions: 24 hr or 48 hr exposure. In kind it is cell-based, rat. On the procedure:
Cell viability was estimated by trypan blue staining following exposure to the drugs. The results of these studies are summarized in FIG. 4A (24 hours) and FIG. 4B (48 hr). Data are presented as Mean±SEM from three separate experiments.

For the next data set, the system named is DU-145 tumor cells. The experiment in a line: Alamar Blue viability assay, DU-145. The format is cell-based, human. From the text: (§1) Several cancer cell lines and normal cells were examined in vitro to determine whether tetracycline compounds produce cytotoxic (cell killing) effects. A conventional assay for viability of cultured cells based on redox activity in the cells was employed (Pagé et al. 1993). The assay uses a redox dye Alamar Blue, which is a fluorogenic indicator dye that is converted to a fluorescent red product only when cells are carrying out electron transport activity, a widely accepted criterion of viability.
Cultured cells from three prostate tumor cell lines, LNCAP, DU-145, and PC-3, and normal prostate stromal cells obtained by biopsy of a normal person, were allowed to grow to confluence in multiwell microplates to minimize differences in proliferative activity among the cell types at the time of exposure to the test compound. CMT-3 was added to the wells at concentrations of 10 μM and 20 μM (50 μM also in the case of DU-145). At the start of the experiment, and again at 1, 2, and 3 days, selected wells were incubated with the indicator dye for 3 hr, and the fluorescence was measured on a Cytofluor 2300 fluorescent microplate reader.
A general note: The colour change of resazurin is a common sign of viable cells or microbes.

A further data set deals with prostate cancer cells. The experiment in a line: Invasive potential of prostate cancer cells in vitro (summary). The format is cell-based. To be noted: 5 μg/mL.
Another data set relates to gelatinase B (MMP-9). The data set can be described thus: Gelatin zymography of conditioned media of TSU PR1 and MAT LyLu cells, MMP-9. In kind it is cell-based. Conditions: 48 hours, serum-free medium. Here is the method:
Next we examined whether CMT-3 and doxycycline differentially affect the production of two major classes of gelatinases: gelatinase A (MMP-2) and gelatinase B (MMP-9). Confluent cultures of TSU PR1 and MAT LyLu cells were incubated with various concentrations of doxycycline and CMT-3 for 48 hours in serum-free medium. The conditioned media were then analyzed for MMPs by zymography as described below.
Conditioned media were collected from the cultures that had been treated with doxycycline or CMT-3 for 2 days. Media were then incubated with SDS-gel electrophoresis sample buffer for 30 min at room temperature, and then analyzed by gel electrophoresis on SDS-polyacrylamide gel (8%) containing gelatin (1 mg/mL). Following electrophoresis, the gels were washed twice with 0.25% TRITON® X100 for 30 min each, and incubated for 18 hr at 37° C. in an MMP digestion buffer comprising 20 mM Tris-HCl, pH 7.4, containing 30 mM NaCl, 1 mM PMSF, 10 mM CaCl2, 2 μM ZnSO4, 0.005% Brij35, and 0.02 NaN3 (Lokeshwar 1993a). After incubation, the gels were briefly rinsed in distilled water and stained with 0.25% Coomassie brilliant blue R250 prepared in 40% isopropanol solution for 1 hr. Gels were destained with 7% acetic acid. the locations of MMPs in the gels were visible as clear areas on a blue background, indicative of digested gelatin.

Data set [1] relates to normal prostate stromal cells. The experiment in a line: Alamar Blue viability assay, normal prostate stromal cells. In kind it is cell-based, human.
Text: as §1
Cultured cells from three prostate tumor cell lines, LNCAP, DU-145, and PC-3, and normal prostate stromal cells obtained by biopsy of a normal person, were allowed to grow to confluence in multiwell microplates to minimize differences in proliferative activity among the cell types at the time of exposure to the test compound. […] At the start of the experiment, and again at 1, 2, and 3 days, selected wells were incubated with the indicator dye for 3 hr, and the fluorescence was measured on a Cytofluor 2300 fluorescent microplate reader.

For data set [2], the system named is MMP-2 (gelatinase A) expressed by COLO 205 cells. The experiment in a line: MMP protein expression by Western blot of conditioned medium, COLO 205 cells. Conditions: 24 hr, serum-free medium. In kind it is cell-based, human. Here is the method: Two human cancer-derived cell lines were obtained from the American Type Culture Collection (ATCC) in Rockville, Md. The cell lines included COLO 205, a human colon cancer-derived cell line that expresses MMP-2 or gelatinase A, and E-10, a human breast cancer-derived cell line that expresses MMP-9 or gelatinase B.
Cells of each cell line were cultured in 75 cm^2 T-flasks in RPMI-1640 (Gibco) with 10% heat-inactivated fetal bovine serum (FBS) containing 100 units/mL penicillin and 100 μg/mL streptomycin. The cells were fed every two days, and passaged every week. The cells were grown to 80-90% confluence, and then the FBS-containing medium was replaced with a serum-free medium (SFM). CMT-3 (CollaGenex Pharmaceuticals, Inc., Newtown, Pa.) was added in several concentrations to the cells in SFM. Conditioned medium was collected after 24 hr, centrifuged to remove cell debris, and then assayed for MMP protein expression by Western blot using a conventional technique, and scanning the blots with a laser densitometer.
(A western blot detects proteins with antibodies after separation by electrophoresis.)

As to `NC(=O)C1=C(O)CC2CC3Cc4cccc(O)c4C(=O)C3=C(O)C2(O)C1=O` (stereo not drawn) [CMT-3, 6-demethyl-6-deoxy-4-de(dimethylamino)tetracycline], in the data set with Dunning MAT LyLu cells, the “inhibition of cell proliferation (rank among tested drugs)” value was “most effective inhibitors of cell proliferation”. Further, the cytotoxicity result in the data set with DU-145 tumor cells (20 μM) is “some cytotoxicity appearing after 72 hr”; in the data set with DU-145 tumor cells (50 μM, over 72 hr), “significant cytoxicity”; in data set [1] (50 µM) it was “no comparable cytotoxicity”. The inhibition at 5 µg/mL with prostate cancer cells was 90%. Moreover, the “MMP-9 levels in conditioned media (zymography)” value with gelatinase B (MMP-9) is “decreased MMP-2 and MMP-9 levels at a lower concentration than did doxycycline”. Besides, the “change in fluorescence (viability)” value in data set [1] (10 μM and 20 μM, three-day period) is reported as “virtually no change in fluorescence”. Besides, the “Percent Inhibition of MMP Protein Expression” value is 13.3% in data set [2] (COLO 205, MMP-2, 10 μM) and 66.9% in data set [2] (COLO 205, MMP-2, 20 μM).

The values above are taken from patent publication US6429204B1, “Method of inhibiting cancer growth” (University of Miami, priority 1997, dated 2002).
